Patent US5922730A, “Alkylated rapamycin derivatives” (American Home Products Corporation, priority 1998, dated 1999)
pIC50: −log10 of the molar value. Several values for one entry are separate records, joined by “and”; a condition that tells them apart may be missing. Equal entries are not always repeated.

What was measured:
[1] = tested on: formation of IgE-like antibodies; details: in vivo; cited from earlier work
[2] = tested on: experimental allergic encephalomyelitis model; details: model for multiple sclerosis; cited from earlier work
[3] = tested on: pinch skin graft from male DBA/2 donors transplanted to male BALB/c recipients; experiment: pinch skin graft survival; type: in vivo; details: intraperitoneal
Description: (§1) Immunosuppressive activity was evaluated in an in vitro standard pharmacological test procedure to measure lymphocyte proliferation (LAF), in an in vivo procedure to evaluate the survival time of a pinch skin graft, and in an in vivo procedure to determine inhibition of T-cell mediated inflammatory response (adjuvant arthritis).
The in vivo test procedure is designed to determine the survival time of pinch skin graft from male DBA/2 donors transplanted to male BALB/c recipients. The method is adapted from Brllingham R. E. and Medawar P. B., J. Exp. Biol. 28:385-402, (1951). Briefly, a pinch skin graft from the donor is grafted on the dorsum of the recipient as a homograft, and an autograft is used as control in the same region. […] Untreated recipients serve as rejection control. The graft is monitored daily and observations are recorded until the graft becomes dry and forms a blackened scab. This is considered as the rjection day. The mean graft survival time (MST -number of days±S.D.) of the drug treatment group is compared with the control group. Rapamycin treatment provides a mean graft survival (MST) of is 12.0±1.7 days.

[4] = tested on: Freund's Complete Adjuvant (FCA) induced arthritis; experiment: adjuvant arthritis standard pharmacological test procedure; type: in vivo, rats (male inbred Wistar Lewis)
Description: as §1
The in vivo adjuvant arthritis standard pharmacological test procedure measures the abilty of test compounds to prevent immune mediated inflammation and inhibit or treat rheumatoid arthritis. The following briefly describes the test procedure used. A group of rats (male inbred Wistar Lewis rats) are pre-treated with the compound to be tested (1 h prior to antigen) and then injected with Freund's Complete Adjuvant (FCA) in the right hind paw to induce arthritis. The rats are then orally dosed on a Monday, Wednesday, Friday schedule from day 0-14 for a total of 7 doses. Both hind paws are measured on days 16, 23 and 30. The difference in paw volume (mL) from day 16 to day 0 is determined and a percent change from control is obtained. The left hind paw (uninjected paw) inflammation is caused by T-cell mediated inflammation and is recorded as percent change from control. The right hind paw inflammation, on the other hand, is caused by non-specific inflammation. Compounds were tested at a dose of 2 mg/kg.

Candida albicans = details: particularly against Candida albicans, in vitro and in vivo; cited from earlier work
[5] = tested on: thymocyte proliferation (cells from the thymus, PHA and IL-1); experiment: comitogen-induced thymocyte proliferation procedure (LAF); type: cell-based, BALB/c mice
Description: Briefly, cells from the thymus of normal BAUI/c mioe are cultured for 72 hours with PHA and IL-1 and pulsed with tritiated thymidine during the last six hours. […] Cells are harvested and incorporated; radioactivity is determined. Inhibition of lymphoproliferation is assessed in percent change in counts per minute from nondrug treated controls.

[6] = tested on: colon (MIP 101) cancer cell line; experiment: inhibition of growth of human tumor cells in vitro (Sulforhodaine B); type: cell-based; details: MIP 101, 48 hours exposure
Description: (§2) Human tumor cell lines were plated in 96-well plates (250 μL well, 1-6×10^4 cells/mL) in RPMI 1640 medium, containing 5% FBS (Petal Bovine Serum). Twenty-four hours after plating, drugs were added at five log concentrations (0.01-100 μg/mL). After 48 hours exposure to drugs, cells were fixed with trichloroacteic acid, and stained with Sulforhodaine B. After washing with trichloroacetic acid, bound dye was solubilized in 10 mM Tris base and Optical Density was determined using a plate reader. Under conditions of the assay, the optical density is proportional to the number of cells in the well. IC50 s (concentrations causing 50% inhibition of cell growth) were determined from the growth inhibition plots. The assay is described in details by Philip Skehan et al., J. National Cancer Institute 82, 1107-1112, 1990.

[7] = tested on: breast (T47D) cancer cell line; experiment: as above; type: cell-based; details: 48 hours exposure
Description: as §2

[8] = tested on: ovarian (A 2780S) cancer cell line; experiment: as above; type: cell-based; details: 48 hours exposure
Description: as §2

| Molecule | inhibition of formation of IgE-like antibodies [1] | effect in experimental allergic encephalomyelitis model [2] | Skin Graft MST ± S.D. (mean graft survival time) [3] | immune-induced inflammation less than control rats ([4]; rapamycin treated rats versus control rats) | antifungal activity (Candida albicans) | pIC50 ([5]; LAF, PHA and IL-1, 72 hours, read-out: IC50 analog) | R/A (ratio of the ID50s of rapamycin to the analog) ([5]; ratio less than 1.0 means the analog is less potent than rapamycin) | inhibition of cancer cell line growth [6] | inhibition of cancer cell line growth [7] | inhibition of cancer cell line growth [8] | Adjuvant Arthritis % Change (uninjected paw at day 16 versus control) ([4]; 2 mg/kg, oral, more negative = more potent) |
| --- | --- | --- | --- | --- | --- | --- | --- | --- | --- | --- | --- |
| CO[C@H]1C[C@@H]2CC[C@@H](C)[C@@](O)(O2)C(=O)C(=O)N2CCCC[C@H]2C(=O)O[C@H]([C@H](C)C[C@@H]2CC[C@@H](O)[C@H](OC)C2)CC(=O)[C@H](C)/C=C(\C)[C@@H](O)[C@@H](OC)C(=O)[C@H](C)C[C@H](C)/C=C/C=C/C=C/1C [rapamycin] | effectively inhibited | effective | 12.0 ± 1.7 days | 70-90% | antifungal activity | – | – | – | – | – | – |
| 29-O-Benzylrapamycin [Example 1] | – | – | 7.2 days | – | – | 8.38 | 0.12 | – | – | – | – |
| COCCOCCOCCO[C@@H]1CC[C@@H](C[C@@H](C)[C@@H]2CC(=O)[C@H](C)/C=C(\C)[C@@H](O)[C@@H](OC)C(=O)[C@H](C)C[C@H](C)/C=C/C=C/C=C(\C)[C@@H](OC)C[C@@H]3CC[C@@H](C)[C@@](O)(O3)C(=O)C(=O)N3CCCC[C@H]3C(=O)O2)C[C@H]1OC [Example 3, 42-O-(2-[2-(2-methoxyethoxy)-ethoxy]-ethyl)-rapamycin] | – | – | 9.8 days and 9.7 days | – | – | – | – | submicromolar concentrations | submicromolar concentrations | submicromolar concentrations | -88% |
